Experimental data: patent US12673921B2, “Substituted fluorine-containing imidazole salt compound, preparation method therefor, pharmaceutical composition thereof and use thereof” (XIAMEN VIVOHEALTHS TECHNOLOGY CO., LTD., priority 2019, dated 2026)

Assays:
[1] = Liver microsome stability test, Beagle dog liver microsome; format: in vitro ADME; settings: 0.5 mg protein/mL microsome, 1 μM compound, 37° C., NADPH, read-out: DLM 0.5 T1/2 (min), half life in Beagle dog liver microsome
Method: (§1) The experimental steps were as follows: • 1. Preparation of working solution • 1.1 Intermediate solution: 5 μL of a 10 mM stock solution of sample or control was taken out, and diluted with 495 μl of methanol (Conc.: 100 μM, 99% MeOH). • 1.2 Working solution: 50 μL of the intermediate solution was taken out, and diluted with 450 μL of a 100 mM potassium phosphate buffer (Conc.: 10 μM, 9.9% MeOH). • 2. Preparation of NADPH cofactor
(§2) An appropriate amount of NADPH powder was weighed, and dissolved with a MgCl2 (10 mM) solution. • 3. Liver microsome • 3.1 Liver microsome information
(§3) • 3.2 Preparation: a microsome working solution with an appropriate concentration was prepared by using a 100 mM potassium phosphate buffer. • 4. Stop solution
(§4) Glacial acetonitrile, comprising 100 ng/ml Tolbutamide and 100 ng/ml Labetalol as internal standards. • 5. Experimental procedures • 5.1 10 μL of the working solution of sample or control was added per well to all plates (T0, T5, T10, T20, T30, T60, NCF60), except for the blank group; • 5.2 80 μL of the working solution of microsome was added per well to all plates, followed by incubation for 10 min at 37° C.; • 5.3 10 μL of a 100 mM potassium phosphate buffer was added per well to NCF60, followed by incubation at 37° C. and starting timer 1;
(§5) • 5.4 After preheating, 10 μL of NADPH was added per well to each plate, and reaction was started;
(§6) Final concentration of each component in the incubation medium:
(§7) • 5.6 300 μL of the stop solution was added per well to stop the reaction; • 5.7 The system was shaken for about 10 min; • 5.8 The samples were centrifuged (4000 rpm) at 4° C. for 20 min; • 5.9 To 8 new 96-well plates, 300 μL of HPLC water was added per well, then 100 μL of the supernatant was added, mixed and subjected to LC/MS/MS.
(§8) In the above table, HLM 0.5 T1/2 (min) refers to half life (min) of compounds in human liver microsome, DLM 0.5 T1/2 (min) refers to half life (min) of compounds in Beagle dog liver microsome.

AMPK = AMPK activity assay at cell level (western blot of p-AMPKα and p-ACC in MEFs); format: cell-based, mouse; settings: MEF cells, compound 10 nM, 2 h; multiple of the ratio relative to positive control AICAR (3 mM); band brightness by Image J
Method: The ability of compounds to activate AMPK in mouse embryonic fibroblasts (MEFs) was determined, which could be specifically carried out by detecting the phosphorylation level (p-AMPKα) of threonine at the 172nd position of AMPK and the phosphorylation level (p-ACC) of serine at the 79th position of the susbtrate ACC1/ACC2 of AMPK (FIG. 1 and Table I) by western blot.
The specific method was as follows: • (1) MEFs with loxP insertion sequences or of wild-type were plated in a 6-well plate and cultured in DMEM containing 10% serum. If a gene needed to be knocked out at this time, when the density of the corresponding MEFs with loxP insertion sequences reached about 30%, an adenovirus capable of expressing cre should be added to the culture well followed by further culture for more than 24 h; • (2) When the cell density was close to 90%, the cells were provided with fresh DMEM, at the same time, a compound (final concentration 10 nM) was added to the cells, followed by culture for 2 h, with an equal volume of DMSO as the negative control, and the cells treated with the addition of AICAR (3 mM) as the positive control; • (3) After sucking up the culture solution, the cells were lysed with 200 μL of a cell lysate (its formulation was given below), then the cells were scraped from the culture dish, ultrasonicated, and subjected to low temperature centrifugation at 20000 g for 10 min; • (4) The supernatant and an equal volume of 2*SDS solution (its formulation was given below) were mixed, and subjected to SDS-PAGE in a concentration of 8%, then the protein was transferred to PVDF membrane; each PVDF membrane was blocked with 25 mL of skim milk for 1 h, and then rinsed with TBST buffer (its formulation was given below) 3 times for 10 min each time; • (5) AMPKα subunit primary antibody (Cell Signaling Technology, #2532), primary antibody of phosphothreonine at the 172nd position of AMPK (Cell Signaling Technology, #2535), ACC primary antibody (Cell Signaling Technology, #3662), or primary antibody of phosphoserine at the 79th position of ACC (Cell Signaling Technology, #3661) was diluted in a ratio of 1:1000 with a primary antibody dilution (its formulation was given below), reacted with the PVDF membrane at room temperature for 12 h, and then rinsed 3 times with TBST buffer; • (6) A 1:1000 dilution of HRP-conjugated goat anti-rabbit secondary antibody (Jackson ImmunoResearch, 111-035-003) was added, reacted at room temperature for 1 h, and then rinsed 3 times with TBST buffer; • (7) The PVDF membrane was dried, reacted in an ECL mixture (WesternBright ECL HRP substrate, Advansta) and subjected to exposure with medical X-ray, developed, finally rinsed, dried, and then scanned to obtain data related to AMPK activation.
The formulations of reagents used were: • Cell lysate: 20 mM Tris-base, pH 7.5, 150 mM NaCl, 1 mM EDTA, 1 mM EGTA, 2.5 mM Sodium pyrophosphate, 1 mM β-glycerolphosphate, 1% Triton X-100 (v/v); • 2*SDS solution: 20% Glycerol (v/v), 4% SDS (m/v), 10% β-mecaptoethanol (v/v), 0.01% Bromophenol blue (m/v); • TBST buffer: 4.84% Tris-base (m/v), 8% NaCl (m/v), 0.1% Tween-20 (v/v); • Primary antibody dilution: TBST buffer containing 5% BSA (v/v).

[2] = Liver microsome stability test, human liver microsome; format: in vitro ADME; settings: 0.5 mg protein/mL microsome, 1 μM compound, 37° C., NADPH, read-out: HLM 0.5 T1/2 (min), half life in human liver microsome
Method: as §1, §2, §3, §4, §5, §6, §7, §8

Cc1n(CCCCCCCCCCCCCCCCF)cc[n+]1Cc1c(Cl)cccc1Cl.Cl [IA-1]
half-life at 1 μM ([1]; liver microsomes): 8.5 min
Degree of AMPK activation, p-ACC/ACC (AMPK): 0.42
Degree of AMPK activation, p-AMPKα/AMPK (AMPK): 1.01
half-life at 1 μM ([2]; liver microsomes): 22.3 min

Cc1n(CCCCCCCCCCCC(F)(F)C(F)(F)C(F)(F)F)cc[n+]1Cc1c(Cl)cccc1Cl.[Cl-] [IB-4]
half-life at 1 μM ([1]; microsomes): > 145 min
Degree of AMPK activation, p-ACC/ACC (AMPK): 0.80
Degree of AMPK activation, p-AMPKα/AMPK (AMPK): 1.66
half-life at 1 μM ([2]; microsomes): > 145 min

Cc1n(CCCCCCCCCCCC(F)(F)C(F)(F)C(F)(F)C(F)(F)F)cc[n+]1Cc1c(Cl)cccc1Cl.[Cl-] [IB-16]
half-life at 1 μM ([1]; microsomes): > 145 min
Degree of AMPK activation, p-ACC/ACC (AMPK): 0.77
Degree of AMPK activation, p-AMPKα/AMPK (AMPK): 2.28
half-life at 1 μM ([2]; microsomes): > 145 min

Cc1n(CCCCCCCCCCCC(F)(F)C(F)(F)C(F)(F)C(F)(F)C(F)(F)F)cc[n+]1Cc1c(F)cccc1Cl.[Cl-] [IB-34]
half-life at 1 μM ([1]; microsomes): 110 min
Degree of AMPK activation, p-ACC/ACC (AMPK): 0.63
Degree of AMPK activation, p-AMPKα/AMPK (AMPK): 0.98
half-life at 1 μM ([2]; microsomes): 192 min

Cc1n(CCCCCCCCCCCC(F)(F)C(F)(F)C(F)(F)C(F)(F)C(F)(F)F)cc[n+]1Cc1c(Cl)cccc1Cl.[I-] [IB-38]
half-life at 1 μM ([1]; microsomes): > 145 min
Degree of AMPK activation, p-ACC/ACC (AMPK): 1.34
Degree of AMPK activation, p-AMPKα/AMPK (AMPK): 2.06
half-life at 1 μM ([2]; microsomes): > 145 min

CC(C)c1n(CCCCCCCCCCCC(F)(F)C(F)(F)C(F)(F)C(F)(F)C(F)(F)F)cc[n+]1Cc1c(Cl)cccc1Cl.[Cl-] [IB-41]
half-life at 1 μM ([1]; microsomes): 79.7 min
Degree of AMPK activation, p-ACC/ACC (AMPK): 1.49
Degree of AMPK activation, p-AMPKα/AMPK (AMPK): 0.94
half-life at 1 μM ([2]; microsomes): 85.3 min

FC(F)(F)C(F)(F)C(F)(F)C(F)(F)C(F)(F)CCCCCCCCCCCn1cc[n+](Cc2c(Cl)cccc2Cl)c1C1CC1.[Cl-] [IB-44]
half-life at 1 μM ([1]; microsomes): 127 min
Degree of AMPK activation, p-ACC/ACC (AMPK): 1.56
Degree of AMPK activation, p-AMPKα/AMPK (AMPK): 0.59
half-life at 1 μM ([2]; microsomes): 93 min

Cc1n(CCCCCCCCCCCC(F)(F)C(F)(F)C(F)(F)C(F)(F)C(F)(F)C(F)(F)F)cc[n+]1Cc1c(Cl)cccc1Cl.[Cl-] [IB-50]
half-life at 1 μM ([1]; microsomes): 122 min
Degree of AMPK activation, p-ACC/ACC (AMPK): 1.09
Degree of AMPK activation, p-AMPKα/AMPK (AMPK): 0.65
half-life at 1 μM ([2]; microsomes): > 145 min

Cc1n(CCCCCCCCCCCC(F)(F)C(F)(F)C(F)(F)C(F)(F)C(F)(F)F)cc[n+]1Cc1c(Cl)cccc1Cl [IB-60]
Degree of AMPK activation, p-ACC/ACC (AMPK): 1.01
Degree of AMPK activation, p-AMPKα/AMPK (AMPK): 0.94
